Measurements published in publication PMC9669019, “Molecular basis for integrin adhesion receptor binding to p21-activated kinase 4 (PAK4)” (Communications Biology, 2022).
Ends that are not written are not given here.

Legend:
GFP-PAK4-cat = assay: GST-integrin β5 fusion pull-down of GFP-PAK4-cat expressed in cells; type: binding, human; settings: Figure 1C source data
Description: (§1) For pulldowns from cell lysates, human PAK4 constructs were generated in pEGFP (Takara Bio Inc.) by PCR amplification from a pLX304 PAK4 isoform 1 (Uniprot O96013-1) construct kindly provided by Michael Calderwood (Dana-Farber Cancer Institute). Mutations and deletions were introduced by QuikChange mutagenesis or PCR amplification. Chinese hamster ovary (CHO) cells were seeded on 10 cm tissue culture dishes and transiently transfected with GFP-tagged constructs using polyethylenimine (Polysciences). After 24 h, cells were harvested and lysed in buffer X (1 mM NaVO4, 50 mM NaF, 40 mM sodium pyrophosphate, 50 mM NaCl, 150 mM sucrose, 10 mM Pipes, pH 6.8) containing 0.5% Triton X-100, 0.2% deoxycholic acid, and complete EDTA-free protease inhibitor mixture (Roche, Indianapolis, IN, USA) for 15 min at 4 °C. After clarification by centrifugation, lysate was diluted in buffer X-T (buffer X with 0.05% Triton X-100) and incubated with His-tagged integrin tails coupled to Ni-NTA beads for 4 h with rocking at 4 °C. For experiments using purified PAK4cat, protein was incubated with His-tagged integrin tails coupled to Ni-NTA beads in buffer X-T for 2 h with rocking at 4 °C. Beads were then washed three times with buffer X-T, and bound proteins were fractionated by reducing SDS-PAGE and analyzed by immunoblotting with anti-GFP antibodies (600-101-215, Rockland). Immunoblots were imaged on an Odyssey IR imaging system (Li-Cor; Lincoln, NE, USA) and analyzed using Image Studio Lite (Li-Cor; Lincoln, NE, USA). For the quantification of binding from immunoblots, the fluorescence intensity of the band corresponding to bound material was quantified as a fraction of the fluorescence of the input material band for each condition. Loading of integrin tails was assessed by Coomassie Blue staining. Data were analyzed using GraphPad Prism.

GFP-PAK4-Δcat = assay: GST-integrin β5 fusion pull-down of GFP-PAK4-Δcat expressed in cells; type: binding, human; settings: Figure 1C source data
Description: as §1

PAK4 = target: T1, PAK4 (Homo sapiens, UniProt O96013); assay: In vitro phosphorylation of integrin β5 tail by PAK4; type: biochemical; settings: in vitro kinase assay, Fig. 5a
T1 construct: catalytic domain of PAK4 (UniProt ID:O96013) was sub-cloned into a modified pET28a vector; 6xHis (TEV-cleavable) (N); made in house; host or cells: E. coli BL21-CodonPlus(DE3)RILP
T1 sequence (O96013 321-572 limits assumed): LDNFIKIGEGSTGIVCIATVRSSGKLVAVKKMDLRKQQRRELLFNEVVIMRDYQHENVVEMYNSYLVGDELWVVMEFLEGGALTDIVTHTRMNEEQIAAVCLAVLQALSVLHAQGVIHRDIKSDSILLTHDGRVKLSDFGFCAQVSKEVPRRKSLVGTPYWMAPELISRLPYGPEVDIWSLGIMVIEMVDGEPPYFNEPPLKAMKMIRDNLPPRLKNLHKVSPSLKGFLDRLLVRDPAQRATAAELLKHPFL

PAK4cat = assay: Radioactive kinase assay with MBP as substrate; type: biochemical, human; settings: in vitro kinase assay, full-length tail 6-50 μM
Description: Impact of full-length cytosolic integrin β5 on kinase activity was assessed using a radioactive assay with myelin basic protein (MBP) as substrate. Assays were performed by addition of 0.1 µM of PAK4cat kinase, 2 µM of MBP, cytosolic full-length integrin β5 ^743–799 (50, 25, 12, and 6 μM), with 12 µM of cold ATP and 0.05 µCi of hot [γ33-P] ATP in Tris buffer (20 mM Tris-HCl (pH 8.0), 0.3 M NaCl, 1 mM TCEP, and 10 mM MgCl2) with a total volume of 25 µL. The reaction was conducted at 30 °C for 7–11 min then stopped by the addition of 5× sample buffer and analyzed by SDS-PAGE. Dried gels were analyzed by exposure to phosphor storage screen (GE Healthcare) followed by scanning using a Molecular Imager FX Pro Plus System (Bio-Rad) and quantified by optical densitometry Quantity One (Bio-Rad). Measurements were calculated from three independent experiments. Significant differences were calculated by Prism 7 (GraphPad Software) with ANOVA analysis. Impact of short integrin β5 peptide on kinase activity was assessed using a radioactive assay with a LIM kinase peptide (RKKRYTVVGN, LIMtide) as substrate. The concentration of PAK4 and LIMtide were kept constant at 0.2 and 50 µM, respectively. […] Duplicate measurements were calculated from three independent experiments. […]

PAK4-cat = assay: Pull-down of purified recombinant PAK4-cat by His-tagged integrin tails on Ni-NTA beads; type: binding, human
Description: Pull down assays were performed as previously described[45],[60]. Briefly, constructs encoding an N-terminal His-tag followed by a helical region, a 4-glycine spacer, and an integrin cytoplasmic tail sequence were produced in BL21 (DE3) bacteria. Following bacterial cell lysis, recombinant protein was bound to Ni-NTA beads, eluted with imidazole, dialyzed and further purified by reverse-phase high-performance liquid chromatography (HPLC). Purified protein was lyophilized for storage and was used to coat fresh Ni-NTA beads to generate an affinity matrix for pull-down assays.
as §1

PAK6 = assay: In vitro phosphorylation of integrin β5 tail by PAK6; type: biochemical; settings: in vitro kinase assay, Fig. 5a

Question: What does the source list for “B5 746-758: GST-fusion truncation of integrin β5 tail ending at residue 758 (VTIHDRREFAKFQ; also: GST fusion, end not given here; UniProt P18084 746-758, looked up, fragment)”?
Answer: PAK4 Cat bound (pull-down quantification) (GFP-PAK4-cat; bound band as fraction of input, replicate column 1 of 7): 0.2198; PAK4 Cat bound (pull-down quantification) (GFP-PAK4-cat; replicate column 6 of 7): 0.1642; PAK4 Cat bound (pull-down quantification) (GFP-PAK4-cat; replicate column 7 of 7): 0.1513; PAK4 Nterm bound (pull-down quantification) (GFP-PAK4-Δcat; replicate 3): 0; PAK4 Nterm bound (pull-down quantification) (GFP-PAK4-Δcat; replicate 4): 0.03887; PAK4 Nterm bound (pull-down quantification) (GFP-PAK4-Δcat; replicate 5): 0.08311; PAK4 Nterm bound (pull-down quantification) (GFP-PAK4-Δcat; replicate 6): 0; PAK4 Nterm bound (pull-down quantification) (GFP-PAK4-Δcat; replicate 7): 0

Question: For “B5 746-762: GST-fusion truncation of integrin β5 tail ending at residue 762 (VTIHDRREFAKFQSERS; also: GST fusion, end not given here; UniProt P18084 746-762, looked up, fragment)”, which “PAK4 Cat bound (pull-down quantification)” value (GFP-PAK4-cat; replicate column 6 of 7) is on record?
Answer: 0.1712

Question: What about the “PAK4 Cat bound (pull-down quantification)” value (GFP-PAK4-cat; replicate column 7 of 7) of the same substance?
Answer: 0.5556

Question: What about the “PAK4 Nterm bound (pull-down quantification)” value (GFP-PAK4-Δcat; replicate 6) of the same substance?
Answer: 0

Question: What about the “PAK4 Nterm bound (pull-down quantification)” value (GFP-PAK4-Δcat; replicate 7) of the same substance?
Answer: 0

Question: Which results are given for “integrin β5 cytoplasmic tail: Recombinant His-tagged integrin β5 cytoplasmic tail, residues 743–799 (KLLVTIHDRREFAKFQSERSRARYEMASNPLYRKPISTHTVDFTFNKFNKSYNGTVD; also: 6xHis tag)”?
Answer: Kinase activity of PAK4 towards the integrin β5 tail (phosphorylation, words) (PAK4): negligible; Effect on PAK4 catalytic activity (PAK4cat): suppression of catalytic activity; PAK4Cat bound to tail (pull-down quantification) (PAK4-cat; 5 nM PAK4Cat, replicate 2): 4.211; PAK4Cat bound to tail (pull-down quantification) (PAK4-cat; 50 nM PAK4Cat, replicate 1): 47.6856; PAK4Cat bound to tail (pull-down quantification) (PAK4-cat; 50 nM PAK4Cat, replicate 2): 66.5041; PAK4Cat bound to tail (pull-down quantification) (PAK4-cat; 100 nM PAK4Cat, replicate 1): 90.1913; PAK4Cat bound to tail (pull-down quantification) (PAK4-cat; 100 nM PAK4Cat, replicate 2): 166.368; PAK4Cat bound to tail (pull-down quantification) (PAK4-cat; 200 nM PAK4Cat, replicate 1): 112.727; PAK4Cat bound to tail (pull-down quantification) (PAK4-cat; 200 nM PAK4Cat, replicate 2): 69.6949; PAK4Cat bound to tail (pull-down quantification) (PAK4-cat; 500 nM PAK4Cat, replicate 1): 260.384; PAK4Cat bound to tail (pull-down quantification) (PAK4-cat; 500 nM PAK4Cat, replicate 2): 185.982; PAK4Cat bound to tail (pull-down quantification) (PAK4-cat; 750 nM PAK4Cat, replicate 2): 239.04; PAK4Cat bound to tail (pull-down quantification) (PAK4-cat; 1000 nM PAK4Cat, replicate 1): 443.221; PAK4Cat bound to tail (pull-down quantification) (PAK4-cat; 1000 nM PAK4Cat, replicate 2): 367.326; PAK4Cat bound to tail (pull-down quantification) (PAK4-cat; 2000 nM PAK4Cat, replicate 2): 619.089; PAK4Cat bound to tail (pull-down quantification) (PAK4-cat; 2000 nM PAK4Cat, replicate 3): 750; PAK4Cat bound to tail (pull-down quantification) (PAK4-cat; 3000 nM PAK4Cat, replicate 1): 966.407; PAK4Cat bound to tail (pull-down quantification) (PAK4-cat; 3000 nM PAK4Cat, replicate 2): 705.982; PAK4Cat bound to tail (pull-down quantification) (PAK4-cat; 4000 nM PAK4Cat, replicate 2): 871.714; PAK4Cat bound to tail (pull-down quantification) (PAK4-cat; 5000 nM PAK4Cat, replicate 3): 875; PAK4Cat bound to tail (pull-down quantification) (PAK4-cat; Figure 1D source data, 5 nM PAK4Cat, replicate 1): 9.128; Phosphorylation of integrin β5 by PAK6 (PAK6): does not display strong phosphorylation
